Data taken from patent publication US20260137706A1, “METHODS OF TREATING INFLAMMATORY DISEASES” (INTERLINE THERAPEUTICS, INC., priority 2023, published 2026).

How the values were obtained:
[1] = test system: NF-κB pathway (SEAP) in THP1-Dual cells; assay: THP-1 Dual cell SEAP assay (L18-MDP stimulated); type: cell-based; settings: Homo sapiens, THP1-Dual, read-out: NF-κB THP1 IC50 bin
Summary of the method: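 THP1-Dual cells (~25,000/well) were preincubated 30 min with serially diluted compounds, then stimulated with 10 ng/mL L18-MDP (final) for 20-24 h at 37 °C. Supernatant SEAP was read with QUANTI-Blue at OD 620-655 nm after 2 h. IC50 came from non-linear fits of % inhibition versus DMSO/L18-MDP controls after media-blank subtraction.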

[2] = biological target: T1, GST-RIPK2 fusion protein (human RIPK2, amino acids 1-310) (Homo sapiens, UniProt O43353); assay: RIPK2 binding competition assay (TR-FRET, Tracer 199 displacement); settings: 10 nM Tracer 199, 1 nM GST-RIPK2, read-out: RIPK2 IC50
T1 construct: made in house; host or cells: baculovirus infected Sf9 cells
T1 sequence (O43353 1-310): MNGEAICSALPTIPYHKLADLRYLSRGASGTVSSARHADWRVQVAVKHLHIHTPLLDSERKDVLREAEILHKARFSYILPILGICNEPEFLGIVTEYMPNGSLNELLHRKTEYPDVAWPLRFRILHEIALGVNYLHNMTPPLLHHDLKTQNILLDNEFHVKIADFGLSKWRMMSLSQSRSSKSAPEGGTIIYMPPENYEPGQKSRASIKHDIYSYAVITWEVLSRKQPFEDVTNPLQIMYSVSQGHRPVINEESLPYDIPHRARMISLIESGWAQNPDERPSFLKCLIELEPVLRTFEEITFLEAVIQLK
Summary of the method: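 GST-RIPK2 (human aa 1-310, Sf9-expressed; final 1 nM) with Tracer 199 (final 10 nM) and Tb-anti-GST (final 0.5 nM) in Tris pH 7.5 buffer, 45 min at 22 °C. TR-FRET 665/620 nm ratio after 337 nm excitation; normalized to no-inhibitor (0%) and no-protein (−100%), giving IC50.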

[3] = biological target: T2, binding of His-XIAP(BIR2)-avi fusion protein to GST-RIPK2 fusion protein (RIPK2/XIAP) (Homo sapiens, UniProt O43353); assay: RIPK2-XIAP binding competition PPI assay (TR-FRET); settings: RIPK2/XIAP binding competition PPI assay; for Emax: Amax, read-out: PPI Amax bin; for IC50: read-out: PPI IC50 bin
T2 construct: made in house; host or cells: baculovirus infected Sf9 cells
T2 sequence (O43353 1-310 limits assumed): as the sequence (O43353 1-310) above
Summary of the method: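 Compounds (in DMSO, 100-fold stock) incubated 120 min at 23 °C with 1 nM GST-RIPK2 (aa 1-310) and 25 nM His-XIAP(BIR2 aa 152-231)-avi, plus anti-His-XL665 and anti-GST-Tb, in pH 7.5 Tris buffer. Read-out: 665/520 nm emission ratio. Normalized to no-inhibitor (0%) and 50 nM GSK583 (−100%); Amax binned A–D.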

| Structure (SMILES) | IC50 [1] [nM] | IC50 [2] [nM] | Emax [3] [%] | IC50 [3] [nM] |
| --- | --- | --- | --- | --- |
| CC(C)(C)S(=O)(=O)c1cn2c(-c3cc4cc[nH]c4nc3F)cnc2cc1OCCO [Example 52, 2-((6-(tert-butylsulfonyl)-3-(6-fluoro-1H-pyrrolo[2,3-b]pyridin-5-yl)imidazo[1,2-a]pyridin-7-yl)oxy)ethan-1-ol] | < 50 | < 1 | > 80 | < 1 |
| CC(C)(C)S(=O)(=O)c1cn2c(-c3cnc4[nH]ccc4c3)cnc2cc1OCCO [Example 53, 2-((6-(tert-butylsulfonyl)-3-(1H-pyrrolo[2,3-b]pyridin-5-yl)imidazo[1,2-a]pyridin-7-yl)oxy)ethan-1-ol] | 50 to 250 | < 1 | > 80 | 1 to 2.5 |
| CC(C)(C)S(=O)(=O)c1cn2c(-c3cc(F)c(N)nc3F)cnc2cc1OCC(F)(F)CO [Example 54, 3-((3-(6-amino-2,5-difluoropyridin-3-yl)-6-(tert-butylsulfonyl)imidazo[1,2-a]pyridin-7-yl)oxy)-2,2-difluoropropan-1-ol] | 50 to 250 | 1 to 2.5 | > 80 | 2.5 to 20 |
| CC(C)(C)S(=O)(=O)c1cn2c(-c3cc(F)c(N)nc3F)cnc2cc1OCC(O)CO (stereo not drawn) [Example 55, 3-((3-(6-amino-2,5-difluoropyridin-3-yl)-6-(tert-butylsulfonyl)imidazo[1,2-a]pyridin-7-yl)oxy)propane-1,2-diol] | 250 to 1000 | 2.5 to 20 | > 80 | 2.5 to 20 |
| CC(C)(C)S(=O)(=O)c1cn2c(-c3cc(F)c(N)nc3F)cnc2cc1OCC1(CO)CC1 [Example 56, (1-(((3-(6-amino-2,5-difluoropyridin-3-yl)-6-(tert-butylsulfonyl)imidazo[1,2-a]pyridin-7-yl)oxy)methyl)cyclopropyl)methanol] | 50 to 250 | 2.5 to 20 | > 80 | 2.5 to 20 |
| CC(C)(C)S(=O)(=O)c1cn2c(-c3cc(F)c(N)nc3F)cnc2cc1OCC(CO)C(F)(F)F (stereo not drawn) [Example 57, 2-(((3-(6-amino-2,5-difluoropyridin-3-yl)-6-(tert-butylsulfonyl)imidazo[1,2-a]pyridin-7-yl)oxy)methyl)-3,3,3-trifluoropropan-1-ol] | 250 to 1000 | 2.5 to 20 | > 80 | 2.5 to 20 |
| COc1cc2ncc(-c3ccc(N)nc3F)n2cc1S(=O)(=O)C(C)(C)CO [Example 58, 2-((3-(6-amino-2-fluoropyridin-3-yl)-7-methoxyimidazo[1,2-a]pyridin-6-yl)sulfonyl)-2-methylpropan-1-ol] | > 1000 | > 20 | > 80 | > 20 |
| CCCS(=O)(=O)Nc1cc(-c2cnc3cc(OC)c(S(=O)(=O)C(C)(C)CO)cn23)cc(OC)c1OC [Example 59, N-(5-(6-((1-hydroxy-2-methylpropan-2-yl)sulfonyl)-7-methoxyimidazo[1,2-a]pyridin-3-yl)-2,3-dimethoxyphenyl)propane-1-sulfonamide] | < 50 | < 1 | > 80 | < 1 |
| COc1cc2ncc(-c3cc(F)c(N)nc3F)n2cc1S(=O)(=O)C(C)(C)CO [Example 60, 2-((3-(6-amino-2,5-difluoropyridin-3-yl)-7-methoxyimidazo[1,2-a]pyridin-6-yl)sulfonyl)-2-methylpropan-1-ol] | 250 to 1000 | 2.5 to 20 | > 80 | 2.5 to 20 |
| COc1cc2ncc(-c3ccc(N)nc3F)n2cc1S(=O)(=O)CCCO [Example 61, 3-((3-(6-amino-2-fluoropyridin-3-yl)-7-methoxyimidazo[1,2-a]pyridin-6-yl)sulfonyl)propan-1-ol] | > 1000 | > 20 | > 80 | > 20 |
| COc1cc2ncc(-c3cc(F)c(N)nc3F)n2cc1S(=O)(=O)C(C)(C)CCO [Example 62, 3-((3-(6-amino-2,5-difluoropyridin-3-yl)-7-methoxyimidazo[1,2-a]pyridin-6-yl)sulfonyl)-3-methylbutan-1-ol] | 250 to 1000 | 2.5 to 20 | > 80 | 2.5 to 20 |
| COc1cc2ncc(-c3cc(F)c(N)nc3F)n2cc1S(=O)(=O)C(C)(C)CCCO [Example 63, 4-((3-(6-amino-2,5-difluoropyridin-3-yl)-7-methoxyimidazo[1,2-a]pyridin-6-yl)sulfonyl)-4-methylpentan-1-ol] | > 1000 | 2.5 to 20 | > 80 | 2.5 to 20 |
| COc1cc2ncc(-c3cc(F)c(N)nc3F)n2cc1S(=O)(=O)C(C)(C)c1nc(C)no1 [Example 64, 3,6-difluoro-5-(7-methoxy-6-((2-(3-methyl-1,2,4-oxadiazol-5-yl)propan-2-yl)sulfonyl)imidazo[1,2-a]pyridin-3-yl)pyridin-2-amine] | > 1000 | > 20 | > 80 | > 20 |
| COc1cc2ncc(-c3cc(F)c(N)nc3F)n2cc1S(=O)(=O)C(C)(C)Cn1cccn1 [Example 65, 3,6-difluoro-5-(7-methoxy-6-((2-methyl-1-(1H-pyrazol-1-yl)propan-2-yl)sulfonyl)imidazo[1,2-a]pyridin-3-yl)pyridin-2-amine] | > 1000 | > 20 | > 80 | > 20 |
| COc1cc2ncc(-c3ccc(N)nc3F)n2cc1S(=O)(=O)C1CC1 [Example 66, 5-(6-(cyclopropylsulfonyl)-7-methoxyimidazo[1,2-a]pyridin-3-yl)-6-fluoropyridin-2-amine] | > 1000 | > 20 | > 80 | > 20 |
| CCCS(=O)(=O)Nc1cc(-c2cnc3cc(OC)c(S(=O)(=O)C4(C)CC4)cn23)cc(OC)c1OC [Example 67, N-(2,3-dimethoxy-5-(7-methoxy-6-((1-methylcyclopropyl)sulfonyl)imidazo[1,2-a]pyridin-3-yl)phenyl)propane-1-sulfonamide] | < 50 | < 1 | > 80 | < 1 |
| COc1cc2ncc(-c3cc(F)c(N)nc3F)n2cc1S(=O)(=O)C1(C)CC1 [Example 68, 3,6-difluoro-5-(7-methoxy-6-((1-methylcyclopropyl)sulfonyl)imidazo[1,2-a]pyridin-3-yl)pyridin-2-amine] | > 1000 | > 20 | > 80 | > 20 |
| CCC(C)(C)S(=O)(=O)c1cn2c(-c3cc(F)c(N)nc3F)cnc2cc1OC [Example 69, 3,6-difluoro-5-(7-methoxy-6-(tert-pentylsulfonyl)imidazo[1,2-a]pyridin-3-yl)pyridin-2-amine] | 250 to 1000 | 2.5 to 20 | > 80 | 2.5 to 20 |
| COc1cc2ncc(-c3cc(F)c(N)nc3F)n2cc1S(=O)(=O)C1(C)CCN(C(=O)OC(C)(C)C)CC1 [Example 70, tert-butyl 4-((3-(6-amino-2,5-difluoropyridin-3-yl)-7-methoxyimidazo[1,2-a]pyridin-6-yl)sulfonyl)-4-methylpiperidine-1-carboxylate] | > 1000 | > 20 | > 80 | > 20 |
| COc1cc2ncc(-c3cc(F)c(N)nc3F)n2cc1S(=O)(=O)C1(C)CCNCC1 [Example 71, 3,6-difluoro-5-(7-methoxy-6-((4-methylpiperidin-4-yl)sulfonyl)imidazo[1,2-a]pyridin-3-yl)pyridin-2-amine] | > 1000 | 2.5 to 20 | > 80 | 2.5 to 20 |
| COc1cc2ncc(-c3cc(F)c(N)nc3F)n2cc1S(=O)(=O)C1(C)CCOCC1 [Example 72, 3,6-difluoro-5-(7-methoxy-6-((4-methyltetrahydro-2H-pyran-4-yl)sulfonyl)imidazo[1,2-a]pyridin-3-yl)pyridin-2-amine] | > 1000 | > 20 | > 80 | > 20 |
| COc1cn2ncc(-c3cc(F)c(N)nc3F)c2cc1C1(O)CCN(C)CC1 [Example 73, 4-(3-(6-amino-2,5-difluoropyridin-3-yl)-6-methoxypyrazolo[1,5-a]pyridin-5-yl)-1-methylpiperidin-4-ol] | 250 to 1000 | 2.5 to 20 | > 80 | 2.5 to 20 |
| COc1cc2ncc(-c3cc(F)c(N)nc3F)n2cc1C1(O)CCN(C)CC1 [Example 74, 4-(3-(6-amino-2,5-difluoropyridin-3-yl)-7-methoxyimidazo[1,2-a]pyridin-6-yl)-1-methylpiperidin-4-ol] | > 1000 | > 20 | > 80 | > 20 |
| COc1cc2ncc(-c3cc(F)c(N)nc3F)n2cc1C1(O)CCOCC1 [Example 75, 4-(3-(6-amino-2,5-difluoropyridin-3-yl)-7-methoxyimidazo[1,2-a]pyridin-6-yl)tetrahydro-2H-pyran-4-ol] | > 1000 | > 20 | > 80 | > 20 |
